For one experiment, the system named is S. aureus ATCC 29213. The experiment in a line: Broth microdilution MIC assay, S. aureus. Format: cell-based. The note with it: Staphylococcus aureus, ATCC29213; broth microdilution, 16-20 hours at 37° C.; read-out: S. aureus 29213 MIC. As to the method:
(§1) To determine the ability of test compounds to potentiate the inhibition of the growth of bacterial strains, classic cell based broth microdilution MIC assays were employed. MIC assays are performed according to CLSI methods except where otherwise noted (CLSI, 2011 and CLSI, 2009). The reference strain S. aureus ATCC 29213 and the hyper-permeable E. coli 901C were used to determine the ability of the PBP compounds to inhibit bacterial growth. Briefly, cryo-preserved bacterial cultures of clinical strains are streaked for isolation on appropriate agar medium, in this case Mueller Hinton II agar. Following incubation to allow formation of colonies these plates are sealed with parafilm and stored refrigerated for up to two weeks. For preparation of assay inocula and to ensure low variability, at least 5 colonies are picked from the agar plates with an inoculating loop and aseptically transferred to a culture tube containing 3 mL of Mueller-Hinton Broth (supplemented with divalent cations to required levels based on Manufacturers' certification). The broth culture is grown for 3-5 hours at 37° C. with shaking at 200 rpm. Meanwhile, 2-fold serial dilutions of test compounds are conducted in a 96 well plate with a final volume of 75 μL per well at 2-fold the final desired concentration. After the dilution plates are set up the growing cultures are then diluted in a cuvette containing MH II broth and the optical density is measured at 600 nm. Inocula are diluted such that 75 μL of this culture in Mueller-Hinton Broth results in a starting bacterial concentration of 5×10^5 CFU/mL when added to the dilution plates. The plates are incubated 16-20 hours at 37° C. The MIC is read visually as the lowest concentration well with no bacterial growth.
(In general: In broth dilution the organism is exposed to a series of concentrations in liquid medium.)

Experiment [1] has as its system hyper-permeable E. coli 901C. Nature of the experiment: Broth microdilution MIC assay, hyper-permeable E. coli. The note with it: Escherichia coli, read-out: E. coli 901C MIC. It counts as cell-based. The procedure: as §1

On to `O=C(N[C@H]1Cc2cccc(C(=O)O)c2OB1O)/C(=N/O)c1nnn[nH]1` [Example 103, (R,E)-2-hydroxy-3-(2-(hydroxyimino)-2-(1H-tetrazol-5-yl)acetamido)-3,4-dihydro-2H-benzo[e][1,2]oxaborinine-8-carboxylic Acid], for which the MIC (in the experiment on S. aureus ATCC 29213; in experiment [1]) was over 128 µg/mL throughout.
On to `O=C(N[C@H]1Cc2cccc(C(=O)O)c2OB1O)/C(=N\O)c1csc(S)n1` [Example 91, (R,Z)-2-hydroxy-3-(2-(hydroxyimino)-2-(2-mercaptothiazol-4-yl)acetamido)-3,4-dihydro-2H-benzo[e][1,2]oxaborinine-8-carboxylic Acid], for which the MIC – broadly, the lowest concentration that inhibits growth of the organism – with S. aureus ATCC 29213 was under 64 µg/mL; in experiment [1], over 128 µg/mL.
As to `NCCO/N=C(\C(=O)N[C@H]1Cc2cccc(C(=O)O)c2OB1O)c1csc(N)n1` [Example 105, (R,Z)-3-(2-((2-aminoethoxy)imino)-2-(2-aminothiazol-4-yl)acetamido)-2-hydroxy-3,4-dihydro-2H-benzo[e][1,2]oxaborinine-8-carboxylic Acid], the MIC is over 128 µg/mL with S. aureus ATCC 29213 and under 64 µg/mL in experiment [1].
On the same counts, the results for `CNc1nc(/C(=N/O)C(=O)N[C@H]2Cc3cccc(C(=O)O)c3OB2O)cs1` [Example 106, (R,Z)-2-hydroxy-3-(2-(hydroxyimino)-2-(2-(methylamino)thiazol-4-yl)acetamido)-3,4-dihydro-2H-benzo[e][1,2]oxaborinine-8-carboxylic Acid] are over 128 µg/mL and over 128 µg/mL.
Regarding `CC(C)(O/N=C(\C(=O)N[C@H]1Cc2cccc(C(=O)O)c2OB1O)c1csc(N)n1)C(=O)N[C@@H](CCC(=O)O)C(=O)O` [Example 77, (2-((((Z)-1-(2-aminothiazol-4-yl)-2-(((R)-8-carboxy-2-hydroxy-3,4-dihydro-2H-benzo[e][1,2]oxaborinin-3-yl)amino)-2-oxoethylidene)amino)oxy)-2-methylpropanoyl)-L-glutamic Acid], the minimum inhibitory concentration (MIC) with S. aureus ATCC 29213 is over 128 µg/mL; in experiment [1], under 64 µg/mL.
On the same counts, the results for `Nc1nc(/C(=N/O)C(=O)N[C@H]2Cc3ccc(F)c(C(=O)O)c3OB2O)cs1` [Example 39, (R,Z)-3-(2-(2-aminothiazol-4-yl)-2-(hydroxyimino)acetamido)-7-fluoro-2-hydroxy-3,4-dihydro-2H-benzo[e][1,2]oxaborinine-8-carboxylic Acid] are under 64 µg/mL and under 64 µg/mL.
On the same counts, the results for `O=C(N[C@H]1Cc2cccc(C(=O)O)c2OB1O)/C(=N\O)c1csc(NCCc2ccncc2)n1` [Example 123, (R,Z)-2-hydroxy-3-(2-(hydroxyimino)-2-(2-((2-(pyridin-4-yl)ethyl)amino)thiazol-4-yl)acetamido)-3,4-dihydro-2H-benzo[e][1,2]oxaborinine-8-carboxylic Acid] are under 64 µg/mL and over 128 µg/mL.
On the same counts, the results for `Nc1nc(/C(=N/O)C(=O)N[C@H]2Cc3cc(O)cc(C(=O)O)c3OB2O)cs1` [Example 43, (R,Z)-3-(2-(2-aminothiazol-4-yl)-2-(hydroxyimino)acetamido)-2,6-dihydroxy-3,4-dihydro-2H-benzo[e][1,2]oxaborinine-8-carboxylic Acid] are under 64 µg/mL and 64 to 128 µg/mL.
In the case of `Nc1nc(/C(=N/O)C(=O)N[C@H]2Cc3ccc(/C=C/C(=O)O)c(C(=O)O)c3OB2O)cs1` [Example 27, (R)-3-((Z)-2-(2-aminothiazol-4-yl)-2-(hydroxyimino)acetamido)-7-((E)-2-carboxyvinyl)-2-hydroxy-3,4-dihydro-2H-benzo[e][1,2]oxaborinine-8-carboxylic Acid], the MIC with S. aureus ATCC 29213 is over 128 µg/mL; in experiment [1], 64 to 128 µg/mL.
With `Nc1nc(/C(=N/O)C(=O)N[C@H]2Cc3ccc(O)c(C(=O)O)c3OB2O)cs1` [Example 21, (R,Z)-3-(2-(2-aminothiazol-4-yl)-2-(hydroxyimino)acetamido)-2,7-dihydroxy-3,4-dihydro-2H-benzo[e][1,2]oxaborinine-8-carboxylic Acid], the MIC in the experiment with S. aureus ATCC 29213 is 64 to 128 µg/mL; in experiment [1], over 128 µg/mL.
For the compound `CCNc1nc(/C(=N/O)C(=O)N[C@H]2Cc3cccc(C(=O)O)c3OB2O)cs1` [Example 107, (R,Z)-3-(2-(2-(ethylamino)thiazol-4-yl)-2-(hydroxyimino)acetamido)-2-hydroxy-3,4-dihydro-2H-benzo[e][1,2]oxaborinine-8-carboxylic Acid], the MIC (in the experiment with S. aureus ATCC 29213; in experiment [1]) was over 128 µg/mL throughout.
`O=C(N[C@H]1Cc2cccc(C(=O)O)c2OB1O)/C(=N\O)c1csc(NCCc2ccccn2)n1` [Example 122, (R,Z)-2-hydroxy-3-(2-(hydroxyimino)-2-(2-((2-(pyridin-2-yl)ethyl)amino)thiazol-4-yl)acetamido)-3,4-dihydro-2H-benzo[e][1,2]oxaborinine-8-carboxylic Acid]: the MIC with S. aureus ATCC 29213 was under 64 µg/mL; in experiment [1] it was over 128 µg/mL.
As for `Nc1nc(/C(=N/O)C(=O)N[C@H]2Cc3cc(OC(F)(F)F)cc(C(=O)O)c3OB2O)cs1` [Example 45, (R,Z)-3-(2-(2-aminothiazol-4-yl)-2-(hydroxyimino)acetamido)-2-hydroxy-6-(trifluoromethoxy)-3,4-dihydro-2H-benzo[e][1,2]oxaborinine-8-carboxylic Acid], the MIC (with S. aureus ATCC 29213; in experiment [1]) was under 64 µg/mL in each case.
Consider `Nc1nc(C(=NO)C(=O)NC2Cc3cccc(C(=O)O)c3OB2O)ns1` (stereo in doubt) [Example 20, (S,Z)-3-(2-(5-amino-1,2,4-thiadiazol-3-yl)-2-(hydroxyimino)acetamido)-2-hydroxy-3,4-dihydro-2H-benzo[e][1,2]oxaborinine-8-carboxylic Acid], for which the MIC (in the experiment with S. aureus ATCC 29213; in experiment [1]) was over 128 µg/mL each time.
For the compound `O=C(O)CO/N=C(/Cn1cncn1)C(=O)N[C@H]1Cc2cccc(C(=O)O)c2OB1O` [Example 112, (R,Z)-3-(2-((carboxymethoxy)imino)-3-(1H-1,2,4-triazol-1-yl)propanamido)-2-hydroxy-3,4-dihydro-2H-benzo[e][1,2]oxaborinine-8-carboxylic Acid], the MIC (in the experiment on S. aureus ATCC 29213; in experiment [1]) was over 128 µg/mL each time.
Turning to `O=C(N[C@H]1Cc2cccc(C(=O)O)c2OB1O)/C(=N\O)c1ccccc1` [Example 83, (R,Z)-2-hydroxy-3-(2-(hydroxyimino)-2-phenylacetamido)-3,4-dihydro-2H-benzo[e][1,2]oxaborinine-8-carboxylic Acid], the minimum inhibitory concentration (MIC) is under 64 µg/mL with S. aureus ATCC 29213 and over 128 µg/mL in experiment [1].
On the same counts, the results for `Nc1nc(/C(=N/OCC(F)(F)F)C(=O)N[C@H]2Cc3cccc(C(=O)O)c3OB2O)cs1` [Example 117, (R,Z)-3-(2-(2-aminothiazol-4-yl)-2-((2,2,2-trifluoroethoxy)imino)acetamido)-2-hydroxy-3,4-dihydro-2H-benzo[e][1,2]oxaborinine-8-carboxylic Acid] are 64 to 128 µg/mL and under 64 µg/mL.
`CC(C)O/N=C(\C(=O)N[C@H]1Cc2cccc(C(=O)O)c2OB1O)c1csc(N)n1` [Example 97, (R,Z)-3-(2-(2-aminothiazol-4-yl)-2-(isopropoxyimino)acetamido)-2-hydroxy-3,4-dihydro-2H-benzo[e][1,2]oxaborinine-8-carboxylic Acid]: the MIC with S. aureus ATCC 29213 was 64 to 128 µg/mL; in experiment [1], over 128 µg/mL.
